Square brackets hold non-standard residues; d marks the D form. Peptide text beside a SMILES is read from it. NMeL = CN[C@@H](CC(C)C)C(=O)O; NMeV = CN[C@H](C(=O)O)C(C)C; Nva = CCC[C@H](N)C(=O)O; Sar = CNCC(=O)O
Assays:
[1] = Permeability in human Caco-2 cells at 10 uM incubated for 2 hrs by LC-MS analysis; type: ADME, cell-based; conditions: read-out: permeability
[2] = Permeability of compound at 10 uM incubated for 18 hrs by PAMPA assay; type: ADME; conditions: read-out: permeability
[3] = 1,9-decadiene-water partition coefficient, logD of compound at pH 7.4 at 10 uM incubated for 30 mins by LC-MS analysis; type: physicochemical

Compound	Papp at 2 h, 10 µM [1] [nm/s]	Papp at 18 h, 10 µM [2] [nm/s]	logD hydrocarbon water at 0.5 h, 10 µM [3]
CCC[C@@H]1NC(=O)[C@H]([C@@H](C)O)N(C)C(=O)[C@H](C(C)C)NC(=O)[C@H](CC(C)C)N(C)C(=O)[C@H](CC(C)C)N(C)C(=O)[C@@H](C)NC(=O)[C@H](C)NC(=O)[C@H](CC(C)C)N(C)C(=O)[C@H](C(C)C)NC(=O)[C@H](CC(C)C)N(C)C(=O)CN(C)C1=O	87	8	3.12
NC(=O)N1c2ccccc2C=Cc2ccccc21 [CARBAMAZEPINE]		95	0.13
CCCC[C@@H]1NC(=O)[C@H](CC(C)C)N(C)C(=O)[C@H](CC(C)C)N(C)C(=O)[C@@H](C)NC(=O)[C@H](C)NC(=O)[C@H](CC(C)C)N(C)C(=O)[C@H](C(C)C)NC(=O)[C@H](CC(C)C)N(C)C(=O)CN(C)C(=O)[C@H](CCC)NC(=O)[C@H]([C@@H](C)O)N(C)C1=O	30	52	2.59
CCC[C@@H]1NC(=O)[C@H](CC(C)C)N(C)C(=O)[C@H](C(C)C)N(C)C(=O)[C@H](CC(C)C)N(C)C(=O)[C@H](CC(C)C)N(C)C(=O)[C@@H](C)NC(=O)[C@H](C)NC(=O)[C@H](CC(C)C)N(C)C(=O)[C@H](C(C)C)NC(=O)[C@H](CC(C)C)N(C)C(=O)CN(C)C1=O (cyclo(A[dA][NMeL][NMeL][NMeV][NMeL][Nva][Sar][NMeL]V[NMeL]))	41	6	4.93
CCC[C@@H]1NC(=O)[C@H]([C@@H](C)O)N(C)C(=O)[C@H](C(C)C)N(C)C(=O)CN(CCN(C(C)C)C(C)C)C(=O)[C@H](CC(C)C)N(C)C(=O)[C@@H](C)NC(=O)[C@H](C)NC(=O)[C@H](CC(C)C)N(C)C(=O)[C@H](C(C)C)NC(=O)[C@H](CC(C)C)N(C)C(=O)CN(C)C1=O.O=C(O)C(F)(F)F	0.7		0.13
CCC[C@@H]1NC(=O)[C@H]([C@H](O)C(C)C)N(C)C(=O)[C@H](C(C)C)N(C)C(=O)[C@H](CC(C)C)N(C)C(=O)[C@H](CC(C)C)N(C)C(=O)[C@@H](C)NC(=O)[C@H](C)NC(=O)[C@H](CC(C)C)N(C)C(=O)[C@H](C(C)C)NC(=O)[C@H](CC(C)C)N(C)C(=O)CN(C)C1=O	186	92	3.35
CCC[C@@H]1NC(=O)[C@H]([C@H](O)C(C)C)N(C)C(=O)[C@H](C(C)C)NC(=O)[C@H](CC(C)C)N(C)C(=O)[C@H](CC(C)C)N(C)C(=O)[C@@H](C)NC(=O)[C@H](C)NC(=O)[C@H](CC(C)C)N(C)C(=O)[C@H](C(C)C)NC(=O)[C@H](CC(C)C)N(C)C(=O)CN(C)C1=O	68		4.6
CCC[C@@H]1NC(=O)[C@H](CC)N(C)C(=O)[C@H](C(C)C)N(C)C(=O)[C@H](CC(C)C)N(C)C(=O)[C@H](CC(C)C)N(C)C(=O)[C@@H](C)NC(=O)[C@H](C)NC(=O)[C@H](CC(C)C)N(C)C(=O)[C@H](C(C)C)NC(=O)[C@H](CC(C)C)N(C)C(=O)CN(C)C1=O	64	20	3.58
CCC[C@@H]1NC(=O)[C@H]([C@@H](C)O)N(C)C(=O)[C@H](C(C)C)N(C)C(=O)[C@H](CC(C)C)N(C)C(=O)[C@H](CC(C)C)N(C)C(=O)[C@@H](C)NC(=O)[C@H](C)NC(=O)[C@H](CC(C)C)N(C)C(=O)[C@H](C(C)C)NC(=O)[C@H](CC(C)C)N(C)C(=O)CN(C)C1=O	30	66	2.12
CCC[C@@H]1NC(=O)[C@H]([C@@H](C)O)N(C)C(=O)[C@H](C)NC(=O)[C@H](CC(C)C)N(C)C(=O)[C@H](CC(C)C)N(C)C(=O)[C@@H](C)NC(=O)[C@H](C)NC(=O)[C@H](CC(C)C)N(C)C(=O)[C@H](C(C)C)NC(=O)[C@H](CC(C)C)N(C)C(=O)CN(C)C1=O	3	3	1.45
C/C=C/C[C@@H](C)[C@@H](OC(C)=O)[C@H]1C(=O)N[C@@H](CC)C(=O)N(C)CC(=O)N(C)[C@@H](CC(C)C)C(=O)N[C@@H](C(C)C)C(=O)N(C)[C@@H](CC(C)C)C(=O)N[C@@H](C)C(=O)N[C@H](C)C(=O)N(C)[C@@H](CC(C)C)C(=O)N(C)[C@@H](CC(C)C)C(=O)N(C)[C@@H](C(C)C)C(=O)N1C			5.17
CCC[C@@H]1NC(=O)[C@H]([C@@H](C)O)N(C)C(=O)[C@H](C(C)C)N(C)C(=O)CN(CC[N+](CC)(CC)CC)C(=O)[C@H](CC(C)C)N(C)C(=O)[C@@H](C)NC(=O)[C@H](C)NC(=O)[C@H](CC(C)C)N(C)C(=O)[C@H](C(C)C)NC(=O)[C@H](CC(C)C)N(C)C(=O)CN(C)C1=O.O=C([O-])C(F)(F)F	3.5		-2.44
CCC[C@@H]1NC(=O)[C@H]([C@@H](C)O)N(C)C(=O)[C@H](CC(C)C)NC(=O)[C@H](CC(C)C)N(C)C(=O)[C@H](CC(C)C)N(C)C(=O)[C@@H](C)NC(=O)[C@H](C)NC(=O)[C@H](CC(C)C)N(C)C(=O)[C@H](C(C)C)NC(=O)[C@H](CC(C)C)N(C)C(=O)CN(C)C1=O	26	77	2.52
CCC[C@@H]1NC(=O)[C@H]([C@@H](C)O)N(C)C(=O)[C@H]([C@@H](C)CC)NC(=O)[C@H](CC(C)C)N(C)C(=O)[C@H](CC(C)C)N(C)C(=O)[C@@H](C)NC(=O)[C@H](C)NC(=O)[C@H](CC(C)C)N(C)C(=O)[C@H](C(C)C)NC(=O)[C@H](CC(C)C)N(C)C(=O)CN(C)C1=O	22	75	2.58
CC(C)NCC(O)COc1cccc2ccccc12 (configuration not stated) [PROPRANOLOL]	320		

— ChEMBL document CHEMBL5365492 (J Med Chem, 2023)
